From patent US8461328B2, “Tricyclic heterocyclic compounds, compositions and methods of use thereof” (Genentech, Inc., priority 2010, dated 2013) come the findings set out here.

Holding throughout (format): biochemical
In one experiment the target is T1, JAK1 (Homo sapiens, UniProt P23458).
T1 construct: made in house; host or cells: SF9 insect cells (baculovirus)
Put plainly: JAK1 inhibition (Table 4). The following applies: read-out: JAK1 Ki.

In the next experiment the target is T2, JAK2 (Homo sapiens, UniProt O60674).
T2 construct: made in house; host or cells: SF9 insect cells (baculovirus)
T2 sequence (O60674 812-1132): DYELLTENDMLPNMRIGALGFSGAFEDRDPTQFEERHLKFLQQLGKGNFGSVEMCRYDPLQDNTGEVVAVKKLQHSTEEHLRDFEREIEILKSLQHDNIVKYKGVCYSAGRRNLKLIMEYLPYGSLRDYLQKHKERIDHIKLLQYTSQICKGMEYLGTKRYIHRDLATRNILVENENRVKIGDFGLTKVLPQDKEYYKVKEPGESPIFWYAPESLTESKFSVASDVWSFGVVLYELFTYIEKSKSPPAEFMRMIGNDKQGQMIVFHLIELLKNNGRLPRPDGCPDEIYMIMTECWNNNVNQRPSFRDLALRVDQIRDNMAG
Put plainly: JAK2 inhibition (Table 4). The following applies: read-out: JAK2 Ki.

For the next experiment, the target named is T3, JAK3 (Homo sapiens, UniProt P52333).
T3 construct: made in house; host or cells: SF9 insect cells (baculovirus)
T3 sequence (P52333 783-1124): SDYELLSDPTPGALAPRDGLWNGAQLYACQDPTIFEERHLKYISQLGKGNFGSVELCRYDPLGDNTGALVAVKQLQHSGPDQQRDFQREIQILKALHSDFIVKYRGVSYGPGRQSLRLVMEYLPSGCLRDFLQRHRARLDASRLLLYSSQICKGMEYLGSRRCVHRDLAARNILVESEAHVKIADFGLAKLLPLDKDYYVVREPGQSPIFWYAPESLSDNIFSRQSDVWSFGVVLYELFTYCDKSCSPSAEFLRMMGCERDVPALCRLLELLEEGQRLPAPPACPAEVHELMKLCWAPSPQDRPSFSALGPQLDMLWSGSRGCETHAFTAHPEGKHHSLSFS
Nature of the experiment: JAK3 inhibition (Table 4). The following applies: read-out: JAK3 Ki.

The next experiment has as its target T4, TYK2 (Homo sapiens, UniProt P29597).
T4 construct: made in house; host or cells: SF9 insect cells (baculovirus)
T4 sequence (P29597 873-1187): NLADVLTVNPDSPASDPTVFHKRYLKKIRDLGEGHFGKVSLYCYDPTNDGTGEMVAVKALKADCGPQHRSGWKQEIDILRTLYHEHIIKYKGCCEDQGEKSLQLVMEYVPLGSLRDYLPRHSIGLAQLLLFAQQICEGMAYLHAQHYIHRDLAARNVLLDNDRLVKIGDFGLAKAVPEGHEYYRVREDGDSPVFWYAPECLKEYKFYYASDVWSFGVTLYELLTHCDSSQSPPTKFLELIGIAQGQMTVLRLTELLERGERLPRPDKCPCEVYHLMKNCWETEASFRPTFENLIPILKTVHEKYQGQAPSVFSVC
Nature of the experiment: TYK2 inhibition (Table 4).

T1 sequence (P23458 852-1154): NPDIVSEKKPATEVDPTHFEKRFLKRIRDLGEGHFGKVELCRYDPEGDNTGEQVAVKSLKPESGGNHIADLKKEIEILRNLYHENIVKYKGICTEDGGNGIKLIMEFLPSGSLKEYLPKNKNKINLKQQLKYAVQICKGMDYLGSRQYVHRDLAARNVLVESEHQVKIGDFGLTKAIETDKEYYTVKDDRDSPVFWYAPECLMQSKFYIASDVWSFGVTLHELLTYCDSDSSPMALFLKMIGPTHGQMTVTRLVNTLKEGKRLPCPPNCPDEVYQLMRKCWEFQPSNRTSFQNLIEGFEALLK

For the compound `CC(=O)NC1CCCC(n2cnc3cnc4[nH]ccc4c32)C1` (single isomer, unassigned) [Example 479, N-[3-(6H-1,3,5,6-Tetraaza-as-indacen-1-yl)-cyclohexyl]-acetamide], the Ki was determined as 130 nM on JAK1, 123 nM at JAK2, 121 nM at JAK3 and 420 nM on TYK2.

For the compound `COCC(=O)NC1CCCC(n2cnc3cnc4[nH]ccc4c32)C1` (single isomer, unassigned) [Example 480, 2-Methoxy-N-[3-(6H-1,3,5,6-tetraaza-as-indacen-1-yl)-cyclohexyl]-acetamide], the Ki worked out at 264 nM on JAK1, 179 nM at JAK2, 563 nM on JAK3 and 1100 nM on TYK2.

On to `COCC(=O)NC1CCCC(n2cnc3cnc4[nH]ccc4c32)C1` (single isomer, unassigned) [Example 481, 2-Methoxy-N-[3-(6H-1,3,5,6-tetraaza-as-indacen-1-yl)-cyclohexyl]-acetamide], for which the Ki turned out to be 127 nM at JAK1, 268 nM at JAK2, 833 nM on JAK3 and 793 nM on TYK2.

On to `COCC(=O)NC1CCCC(n2cnc3cnc4[nH]ccc4c32)C1` (single isomer, unassigned) [Example 482, 2-Methoxy-N-[3-(6H-1,3,5,6-tetraaza-as-indacen-1-yl)-cyclohexyl]-acetamide], for which the Ki at JAK1 was 55.8 nM; at JAK2 it was 97.6 nM; at JAK3 it was 150 nM; at TYK2, 845 nM.

In the case of `OC1CCCC(n2nnc3cnc4[nH]ccc4c32)C1` (single isomer, unassigned) [Example 551, 3-(6H-1,2,3,5,6-Pentaaza-as-indacen-1-yl)-cyclohexanol], the Ki at JAK1 was determined as 13.5 nM; at JAK2 it was 19 nM; at JAK3, 128 nM; at TYK2, 88.6 nM.

Consider `OC1CCCC(n2nnc3cnc4[nH]ccc4c32)C1` (single isomer, unassigned) [Example 552, 3-(6H-1,2,3,5,6-Pentaaza-as-indacen-1-yl)-cyclohexanol], for which the Ki on JAK1 worked out at 6.59 nM; at JAK2 it was 10.2 nM; at JAK3, 11.8 nM; at TYK2 it was 24.2 nM.

Take `OC1CCCC(n2nnc3cnc4[nH]ccc4c32)C1` (single isomer, unassigned) [Example 553, 3-(6H-1,2,3,5,6-Pentaaza-as-indacen-1-yl)-cyclohexanol]: the Ki on JAK1 is 8.59 nM; at JAK2, 20.4 nM; on JAK3, 42.5 nM; at TYK2, 33.5 nM.

`OC1CCCC(n2nnc3cnc4[nH]ccc4c32)C1` (single isomer, unassigned) [Example 554, 3-(6H-1,2,3,5,6-Pentaaza-as-indacen-1-yl)-cyclohexanol]: the Ki at JAK1 amounted to 13.3 nM; on JAK2, 31.6 nM; at JAK3 it was 77.3 nM; on TYK2 it was 60.6 nM.

`OC1CCCC(n2cnc3cnc4[nH]ccc4c32)C1` (single isomer, unassigned) [Example 559, 3-(6H-1,3,5,6-Tetraaza-as-indacen-1-yl)-cyclohexanol]: the Ki was 10.3 nM on JAK1, 24 nM on JAK2, 52.9 nM on JAK3 and 38.5 nM on TYK2.

`OC1CCCC(n2cnc3cnc4[nH]ccc4c32)C1` (single isomer, unassigned) [Example 560, 3-(6H-1,3,5,6-Tetraaza-as-indacen-1-yl)-cyclohexanol]: the Ki was 8.14 nM at JAK1, 13.2 nM on JAK2, 37.5 nM on JAK3 and 47.3 nM on TYK2.

Turning to `OC1CCCC(n2cnc3cnc4[nH]ccc4c32)C1` (single isomer, unassigned) [Example 561, 3-(6H-1,3,5,6-Tetraaza-as-indacen-1-yl)-cyclohexanol], the Ki was 7.29 nM at JAK1, 17.9 nM on JAK2, 14.5 nM on JAK3 and 24.5 nM at TYK2.

Regarding `OC1CCCC(n2cnc3cnc4[nH]ccc4c32)C1` (single isomer, unassigned) [Example 562, 3-(6H-1,3,5,6-Tetraaza-as-indacen-1-yl)-cyclohexanol], the Ki at JAK1 worked out at 4.58 nM; on JAK2, 7.55 nM; on JAK3 it was 5.89 nM; on TYK2 it was 12 nM.

Regarding `c1cc2c(ncc3nc(C4CCCN4)n(C4CCCOC4)c32)[nH]1` (single isomer, unassigned) [Example 668], the Ki at JAK1 was determined as 1020 nM; on JAK2, 2940 nM; at JAK3, 2620 nM; at TYK2, 3240 nM.

As for `C[C@@H](N)c1nc2cnc3[nH]ccc3c2n1C1CCCOC1` (single isomer, unassigned) [Example 669, 1-[1-(Tetrahydro-pyran-3-yl)-1,6-dihydro-1,2,3,5,6-tetraaza-as-indacen-2-yl]-ethylamine], the Ki on JAK1 turned out to be 137 nM; at JAK2, 913 nM; at JAK3, 823 nM; on TYK2 it was 681 nM.

Consider `CCOC(=O)NCCc1nc2cnc3[nH]ccc3c2n1C1CCN(CC)CC1(F)F` (single isomer, unassigned) [Example 679, {2-[1-(1-Ethyl-3,3-difluoro-piperidin-4-yl)-1,6-dihydro-1,2,3,5,6-tetraaza-as-indacen-2-yl]-ethyl}-carbamic acid ethyl ester], for which the inhibitory constant (Ki) at JAK1 worked out at 7.45 nM; at JAK2, 55.5 nM; at JAK3, 27.7 nM; on TYK2, 413 nM.

As to `CCOC(=O)NCCc1nc2cnc3[nH]ccc3c2n1C1CCN(CC)CC1(F)F` (single isomer, unassigned) [Example 680, {2-[1-(1-Ethyl-3,3-difluoro-piperidin-4-yl)-1,6-dihydro-1,2,3,5,6-tetraaza-as-indacen-2-yl]-ethyl}-carbamic acid ethyl ester], the inhibition constant (Ki) was found to be 7.32 nM on JAK1, 56.3 nM at JAK2, 28.4 nM on JAK3 and 412 nM on TYK2.

As for `CCN1CCC(n2c(CCNS(C)(=O)=O)nc3cnc4[nH]ccc4c32)C(F)(F)C1` (single isomer, unassigned) [Example 805, N-{2-[1-(1-Ethyl-3,3-difluoro-piperidin-4-yl)-1,6-dihydro-1,3,5,6-tetraaza-as-indacen-2-yl]-ethyl}-methanesulfonamide], the Ki was determined as 2.8 nM at JAK1, 36 nM on JAK2, 9.01 nM on JAK3 and 158 nM at TYK2.

As to `CCN1CCC(n2c(CCNS(C)(=O)=O)nc3cnc4[nH]ccc4c32)C(F)(F)C1` (single isomer, unassigned) [Example 806, N-{2-[1-(1-Ethyl-3,3-difluoro-piperidin-4-yl)-1,6-dihydro-1,3,5,6-tetraaza-as-indacen-2-yl]-ethyl}-methanesulfonamide], the inhibitory constant (Ki) is 3.41 nM on JAK1, 21.2 nM at JAK2, 17.9 nM at JAK3 and 179 nM at TYK2.

Turning to `CC(O)c1nc2cnc3[nH]ccc3c2n1C1CC2CCC1O2` (single isomer, unassigned) [Example 846, endo-1-[1-(7-Oxa-bicyclo[2.2.1]hept-2-yl)-1,6-dihydro-1,3,5,6-tetraaza-as-indacen-2-yl]-ethanol], the Ki at JAK1 amounted to 90.6 nM; on JAK2 it was 369 nM; on JAK3 it was 261 nM; on TYK2, 749 nM.

For the compound `CC(O)c1nc2cnc3[nH]ccc3c2n1C1CC2CCC1O2` (single isomer, unassigned) [Example 847, endo-1-[1-(7-Oxa-bicyclo[2.2.1]hept-2-yl)-1,6-dihydro-1,3,5,6-tetraaza-as-indacen-2-yl]-ethanol], the Ki at JAK1 is 105 nM; on JAK2, 530 nM; on JAK3, 381 nM; at TYK2, 279 nM.

In the case of `CS(=O)(=O)NCc1nc2cnc3[nH]ccc3c2n1C1CC2CCC1O2` (single isomer, unassigned) [Example 849, endo-N-[1-(7-Oxa-bicyclo[2.2.1]hept-2-yl)-1,6-dihydro-1,3,5,6-tetraaza-as-indacen-2-ylmethyl]-methanesulfonamide], the Ki at JAK1 was 50.8 nM; on JAK2 it was 515 nM; at JAK3, 592 nM; on TYK2, 459 nM.

On to `CS(=O)(=O)NCc1nc2cnc3[nH]ccc3c2n1C1CC2CCC1O2` (single isomer, unassigned) [Example 850, endo-N-[1-(7-Oxa-bicyclo[2.2.1]hept-2-yl)-1,6-dihydro-1,3,5,6-tetraaza-as-indacen-2-ylmethyl]-methanesulfonamide], for which the Ki at JAK1 was found to be 60.5 nM; at JAK2, 134 nM; on JAK3, 106 nM; on TYK2 it was 361 nM.

As for `OCc1nc2cnc3[nH]ccc3c2n1C1CC2CCC1O2` (single isomer, unassigned) [Example 851, endo-[1-(7-Oxa-bicyclo[2.2.1]hept-2-yl)-1,6-dihydro-1,3,5,6-tetraaza-as-indacen-2-yl]-methanol], the Ki on JAK1 stood at 25.9 nM; on JAK2, 53.3 nM; on JAK3, 24.4 nM; at TYK2, 49.9 nM.

For `OCc1nc2cnc3[nH]ccc3c2n1C1CC2CCC1O2` (single isomer, unassigned) [Example 852, endo-[1-(7-Oxa-bicyclo[2.2.1]hept-2-yl)-1,6-dihydro-1,3,5,6-tetraaza-as-indacen-2-yl]-methanol], the Ki on JAK1 turned out to be 29.1 nM; on JAK2, 140 nM; at JAK3, 117 nM; on TYK2, 89.3 nM.

Broadly, the Ki is the dissociation constant of the complex between target and ligand, obtained from inhibition or displacement.
